Data on one compound can be found in paper PMC8389614, “A Comparison of Acute Pharmacological Effects of Methylone and MDMA Administration in Humans and Oral Fluid Concentrations as Biomarkers of Exposure” (Biology, 2021).

The series in a line: Oral fluid to blood (OF/B) concentration ratio and plasma concentration. Particulars: human.

The Kp is the ratio of the level in a tissue or fluid to that in plasma or blood. With `CNC(C)C(=O)c1ccc(C)cc1` (stereo not shown) [mephedrone, 4-methylmethcathinone], the concentration ratio (Kp) was found to be 22.3 (oral, 200 mg); 49.4 (po, 100 mg); 4.28 (po, 150 mg); 11.7 (po, 200 mg).
